Measurements reported in ChEMBL document CHEMBL5149967, “Chemical Highlights Supporting the Role of Lipid A in Efficient Biological Adaptation of Gram-Negative Bacteria to External Stresses” (J Med Chem, 2021).
≈ marks a conversion by molar mass, not a printed value. Residues, ends and D or L forms follow the SMILES beside them.

Assays:
[1] = Binding affinity to Escherichia coli LpxA assessed as inhibition constant
[2] = Inhibition of Escherichia coli LpxA
[3] = Inhibition of Escherichia coli BL21(DE3) LpxA
Klebsiella pneumoniae [4] = assay: Inhibition of Klebsiella pneumoniae LpxH relative to control; conditions: concentration not given here
[5] = Binding affinity to bacterial LpxA assessed as dissociation constant by SPR analysis; parameters: species or system Bacteria
Klebsiella pneumoniae [6] = assay: Antibacterial activity against Klebsiella pneumoniae assessed as bacterial growth inhibition; assay type: functional
Pseudomonas aeruginosa [7] = assay: Antibacterial activity against Pseudomonas aeruginosa ATCC 27853 assessed as bacterial growth inhibition; assay type: functional
Pseudomonas aeruginosa [8] = assay: Antibacterial activity against Pseudomonas aeruginosa clinical isolate assessed as bacterial growth inhibition at <=2 ug/ml; assay type: functional; parameters: scale not given: the % may be the effect or the level left; conditions: dose <= 2 µg/ml; up to 2 µg/mL
Escherichia coli [9] = assay: Antibacterial activity against Escherichia coli ATCC 25922 assessed as bacterial growth inhibition; assay type: functional, organism-based
Pseudomonas aeruginosa [10] = assay: Antibacterial activity against Pseudomonas aeruginosa assessed as bacterial growth inhibition; assay type: functional
[11] = Inhibition of Escherichia coli LpxC
[12] = Binding affinity to Escherichia coli LpxC assessed as inhibition constant
Escherichia coli [13] = assay: Antibacterial activity against Escherichia coli envA+ assessed as bacterial growth inhibition; assay type: functional
[14] = Binding affinity to bacterial LpxA assessed as dissociation constant; parameters: species or system Bacteria
Escherichia coli [15] = assay: Antibacterial activity against Escherichia coli assessed as bacterial growth inhibition; assay type: functional
[16] = Binding affinity to Pseudomonas aeruginosa LpxD assessed as dissociation constant
Escherichia coli [17] = assay: Antibacterial activity against Escherichia coli TolC minus assessed as bacterial growth inhibition; assay type: functional, organism-based
[18] = Inhibition of bacterial LpxD; parameters: species or system Bacteria
Escherichia coli [19] = assay: Inhibition of Escherichia coli LpxH at 1 uM relative to control
[20] = Inhibition of Escherichia coli LpxH
[21] = Inhibition of Klebsiella pneumoniae LpxH

CC[C@H](C)[C@H](NC(=O)[C@@H]1CCCN1C(=O)[C@H](CCC(=O)O)NC(=O)[C@H](CC(C)C)NC(=O)[C@H](CCSC)NC(=O)[C@H](Cc1c[nH]c2ccccc12)NC(=O)CNC(=O)[C@H](CO)NC(=O)[C@@H](N)CO)C(=O)N[C@@H](C)C(=O)NCC(=O)N[C@@H](CCCCN)C(=O)N[C@@H](Cc1c[nH]c2ccccc12)C(=O)N[C@@H](CO)C(=O)N[C@@H](CCCNC(=N)N)C(=O)O (H-SSGWMLEPIAGKWSR-OH)
Ki [1]: 0.05 µM
IC50 [2]: 0.06 µM

CC[C@H](C)[C@H](NC(=O)[C@@H]1CCCN1C(=O)[C@H](CC(=O)O)NC(=O)[C@H](CC(C)C)NC(=O)[C@H](CCSC)NC(=O)[C@H](Cc1c[nH]c2ccccc12)NC(=O)CN)C(=O)N[C@@H](C)C(=O)NCC(=O)N[C@@H](CCCCN)C(=O)N[C@@H](Cc1c[nH]c2ccccc12)C(=O)N[C@@H](CO)C(=O)N[C@@H](CCCNC(=N)N)C(=O)O (H-GWMLDPIAGKWSR-OH)
IC50 [3]: 0.077 µM

O=CN1CCc2cc(S(=O)(=O)N3CCN(c4cccc(Br)c4)CC3)ccc21
inhibition (Klebsiella pneumoniae [4]): 48%

O=C(O)CCC(=O)c1cccc2ccccc12
Kd [5]: 2.1 µM

O=C(CCCCNC(=O)Nc1ccc(S(=O)(=O)N2CCN(c3cc(Cl)cc(C(F)(F)F)c3)CC2)cc1)NO
MIC (Klebsiella pneumoniae [6]): 32 µg/mL (≈ 55.4 µM)
inhibition (Klebsiella pneumoniae [4]): 79%

CC(C)(N)[C@H](NC(=O)c1ccc(C#CC#C[C@@H]2C[C@H]2CO)cc1)C(=O)NO [ACHN-975]
MIC (Pseudomonas aeruginosa [7]): 0.25 µg/mL (≈ 0.677 µM)
Activity (Pseudomonas aeruginosa [8]): 100%
MIC (Escherichia coli [9]): 0.125 µg/mL (≈ 0.338 µM)

CC[C@H](C)[C@H](NC(=O)[C@@H]1CCCN1C(=O)[C@H](CCC(=O)O)NC(=O)[C@H](CC(C)C)NC(=O)[C@H](CCSC)NC(=O)[C@H](Cc1c[nH]c2ccccc12)NC(=O)CNC(=O)[C@H](CO)NC(=O)[C@@H](N)CO)C(=O)N[C@@H](C)C(=O)NCC(=O)N[C@@H](CCCCN)C(=O)N[C@@H](Cc1c[nH]c2ccccc12)C(=O)N[C@@H](CO)C(=O)O (H-SSGWMLEPIAGKWS-OH)
IC50 [3]: 12 µM

CCCc1cc(C2=NC(C(=O)NO)CO2)cc(OC)c1OC (stereo not drawn)
MIC (Pseudomonas aeruginosa [10]): > 100 µg/mL
IC50 [11]: 0.03 µM
Ki [12]: 0.05 µM
MIC (Escherichia coli [13]): 1 µg/mL (≈ 3.24 µM)

C/C(=C\C(=O)Nc1nnn[nH]1)c1cccc(C(F)(F)F)c1
Kd [14]: 2.1 µM

O=C(NO)[C@@H](Cc1ccc2ccccc2c1)NS(=O)(=O)c1ccc(Br)cc1
MIC (Pseudomonas aeruginosa [10]): > 32 µg/mL
IC50 [11]: 0.4 µM
MIC (Escherichia coli [15]): 2 µg/mL (≈ 4.45 µM)

NC(=O)C1CN(C(=O)CSCCC(=O)O)c2ccccc2O1 (stereo not drawn)
Kd [5]: 19.5 µM
Kd [16]: 36.7 µM

CSCC[C@H](NC(=O)[C@H](Cc1ccccc1)NC(=O)[C@H](CC(N)=O)NC(=O)[C@H](CC(N)=O)NC(=O)[C@H](CCC(=O)O)NC(=O)[C@@H](N)CO)C(=O)N[C@@H](CC(C)C)C(=O)N1CCC[C@H]1C(=O)N[C@@H](CC(C)C)C(=O)N[C@@H](CC(C)C)C(=O)N1CCC[C@H]1C(=O)N[C@@H](CC(C)C)C(N)=O (H-SENNFMLPLLPL-NH2)
IC50 (Escherichia coli [17]): 3.13 µM
IC50 [18]: 3.2 µM

NC(Cc1c[nH]c2ccc([N+](=O)[O-])cc12)C(=O)O (stereo not drawn)
Kd [14]: 13.6 µM

CC[C@H](C)[C@H](NC(=O)[C@@H]1CCCN1C(=O)[C@H](CCC(=O)O)NC(=O)[C@H](CC(C)C)NC(=O)[C@H](CCSC)NC(=O)[C@H](Cc1c[nH]c2ccccc12)NC(=O)CNC(=O)[C@H](CO)NC(=O)[C@@H](N)CO)C(=O)N[C@@H](C)C(=O)NCC(=O)N[C@@H](CCCCN)C(=O)N[C@@H](Cc1c[nH]c2ccccc12)C(=O)O (H-SSGWMLEPIAGKW-OH)
IC50 [3]: 9 µM

O=C(NO)C1COC(c2ccccc2)=N1 (stereo not drawn)
IC50 [11]: 8.5 µM
Ki [12]: 24 µM
MIC (Escherichia coli [15]): 200 µg/mL (≈ 970 µM)

CC[C@H](C)[C@H](NC(=O)[C@@H]1CCCN1C(=O)[C@H](CCC(=O)O)NC(=O)[C@H](CC(C)C)NC(=O)[C@H](CCSC)NC(=O)[C@H](Cc1c[nH]c2ccccc12)NC(=O)CN)C(=O)N[C@@H](C)C(=O)O (H-GWMLEPIA-OH)
IC50 [3]: > 100 µM

O=CN1CCc2cc(S(=O)(=O)N3CCN(c4cc(F)cc(C(F)(F)F)c4)CC3)ccc21
inhibition (Escherichia coli [19]): 74%
IC50 [20]: 0.083 µM
MIC (Klebsiella pneumoniae [6]): 2.8 µg/mL (≈ 6.12 µM)
IC50 [21]: 0.11 µM
